Measurements from patent US12497394B2, “Fused-cyclic pyrazolone formamide compound and preparation method therefor, pharmaceutical composition and use thereof” (SHANGHAI INSTITUTE OF MATERIA MEDICA, CHINESE ACADEMY OF …, priority 2018, dated 2025).
Values joined by “and” are separate entries in the source; they are usually repeats but may differ in a detail not shown here. Identical values can stand only once.

What was measured:
[1] = molecular target: receptor tyrosine kinase c-Met (Homo sapiens, UniProt P08581); assay: In vitro c-Met kinase inhibitory activity; format: biochemical; conditions: two values per compound; for inhibition at 0.01 µM / inhibition at 0.1 µM / inhibition at 0.001 µM: read-out: c-Met Inhibitory rate (%)
Chain of receptor tyrosine kinase c-Met (P08581 25-1390): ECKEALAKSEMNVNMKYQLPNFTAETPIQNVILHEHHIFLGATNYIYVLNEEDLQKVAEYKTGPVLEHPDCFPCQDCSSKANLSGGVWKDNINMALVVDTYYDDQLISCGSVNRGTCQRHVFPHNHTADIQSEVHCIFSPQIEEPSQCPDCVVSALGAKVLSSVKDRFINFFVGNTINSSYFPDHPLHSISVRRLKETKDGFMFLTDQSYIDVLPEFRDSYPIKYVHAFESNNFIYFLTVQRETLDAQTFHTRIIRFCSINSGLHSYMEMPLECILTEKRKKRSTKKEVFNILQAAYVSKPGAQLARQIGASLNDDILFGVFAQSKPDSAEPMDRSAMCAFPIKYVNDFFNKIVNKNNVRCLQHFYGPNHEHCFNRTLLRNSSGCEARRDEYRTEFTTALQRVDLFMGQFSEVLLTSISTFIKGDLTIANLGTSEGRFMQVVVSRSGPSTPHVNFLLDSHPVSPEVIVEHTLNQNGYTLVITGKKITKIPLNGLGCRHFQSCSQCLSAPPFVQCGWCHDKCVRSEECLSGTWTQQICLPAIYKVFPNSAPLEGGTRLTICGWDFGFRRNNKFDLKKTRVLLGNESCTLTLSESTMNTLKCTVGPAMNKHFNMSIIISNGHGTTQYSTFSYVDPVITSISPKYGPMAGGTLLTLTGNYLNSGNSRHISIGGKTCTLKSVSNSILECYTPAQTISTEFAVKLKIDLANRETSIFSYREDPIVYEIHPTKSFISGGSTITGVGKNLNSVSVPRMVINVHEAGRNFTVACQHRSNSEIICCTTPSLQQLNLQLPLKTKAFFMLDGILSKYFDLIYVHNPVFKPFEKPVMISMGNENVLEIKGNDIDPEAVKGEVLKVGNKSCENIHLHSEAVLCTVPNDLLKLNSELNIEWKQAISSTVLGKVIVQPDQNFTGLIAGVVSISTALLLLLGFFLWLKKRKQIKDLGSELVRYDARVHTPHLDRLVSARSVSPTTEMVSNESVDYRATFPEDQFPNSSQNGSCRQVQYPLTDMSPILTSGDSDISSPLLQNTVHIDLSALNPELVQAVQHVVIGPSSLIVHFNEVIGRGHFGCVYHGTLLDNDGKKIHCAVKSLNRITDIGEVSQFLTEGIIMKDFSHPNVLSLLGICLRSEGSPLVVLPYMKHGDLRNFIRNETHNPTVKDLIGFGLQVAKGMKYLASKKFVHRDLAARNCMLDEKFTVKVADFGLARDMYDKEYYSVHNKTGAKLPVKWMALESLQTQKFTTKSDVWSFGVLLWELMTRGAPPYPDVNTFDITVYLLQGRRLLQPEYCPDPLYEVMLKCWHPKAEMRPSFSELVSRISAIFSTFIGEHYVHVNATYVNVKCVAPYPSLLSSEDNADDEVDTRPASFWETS
Excerpt: Experimental Example 3: Study of In Vitro c-Met Kinase Inhibitory Activity
Since the screening results of 369 kinase profiles of compound DC621044 has shown that the compound has a certain inhibitory activity on c-Met. We further screened some compounds for their inhibitory activity on c-Met kinase.

[2] = tested on: BaF3/TEL-AXL cells; assay: Proliferation of BaF3/TEL-AXL cells; format: cell-based; conditions: two values per compound; for inhibition at 0.01 µM / inhibition at 0.1 µM / inhibition at 0.001 µM: BaF3/TEL-AXL, read-out: BaF3/TEL-AXL proliferation Inhibitory rate (%)
Excerpt: Experimental Example 4: Effect of the Compound on the Proliferation Effect of BaF3/TEL-AXL Cells
Based on the above-mentioned enzyme activity research results, we further explored the effect of the compound on cell proliferation mediated by receptor tyrosine kinase AXL.

c-Met Inhibitory rate (%) ([1]; 1 nM, 0.001 µM)	inhibition at 0.001 µM ([1]; 1 nM) [%]	Structure (SMILES)	c-Met Inhibitory rate (%) ([1]; 10 nM, 0.01 µM)	inhibition at 0.01 µM ([1]; 10 nM) [%]	c-Met Inhibitory rate (%) ([1]; 100 nM, 0.1 µM)	inhibition at 0.1 µM ([1]; 100 nM) [%]	BaF3/TEL-AXL proliferation Inhibitory rate (%) ([2]; 10 nM, 0.01 µM)	BaF3/TEL-AXL proliferation Inhibitory rate (%) ([2]; 100 nM, 0.1 µM)	inhibition at 0.01 µM ([2]; 10 nM) [%]	inhibition at 0.1 µM ([2]; 100 nM) [%]	BaF3/TEL-AXL proliferation Inhibitory rate (%) ([2]; 1 nM, 0.001 µM)	inhibition at 0.001 µM ([2]; 1 nM) [%]
–	–	COc1cc2ncnc(Oc3ccc(NC(=O)c4c5n(n(-c6ccccc6)c4=O)CCCC5)cc3F)c2cc1OC [DC621011, N-(4-((6,7-dimethoxyquinazoline-4-yl)oxy)-3-fluorophenyl)-2-oxo-1-phenyl-1,2,4,5,6,7-hexahydropyrazolo[1,5-a]pyridine-3-formamide]	89.2%	74.4	100	86.6	56.1	83.9	60.5	84.8	–	–
34.8% and 63.9%	–	COc1cc2ncnc(Oc3ccc(NC(=O)c4c5n(n(-c6ccccc6F)c4=O)CCCC5)cc3F)c2cc1OC [DC621034, N-(4-((6,7-dimethoxyquinazoline-4-yl)oxy)-3-fluorophenyl)-1-(2-fluorophenyl)-2-oxo-1,2,4,5,6,7-hexahydropyrazolo[1,5-a]pyridine-3-formamide]	66.5%	48.3	97.0	97.5	–	–	–	–	–	–
43.0%	32.7	O=C(Nc1ccc(Oc2ncnc3[nH]cc(-c4ccccc4)c23)c(F)c1)c1c2n(n(-c3ccccc3)c1=O)CCCC2 [DC621052, N-(3-fluoro-4-((5-phenyl-7H-pyrrolo[2,3-d]pyrimidin-4-yl)oxy)phenyl)-2-oxo-1-phenyl-1,2,4,5,6,7-hexahydropyrazolo[1,5-a]pyridine-3-formamide]	55.1% and 85.0%	–	94.1	84.5	–	–	–	–	–	–
–	–	COc1cc2ncnc(Oc3ccc(NC(=O)c4c5n(n(-c6cc(F)ccc6F)c4=O)CCCC5)c(F)c3)c2cc1OC [DC621053, 1-(2,5-difluorophenyl)-N-(4-((6,7-dimethoxyquinazoline-4-yl)oxy)-2-fluorophenyl)-2-oxo-1,2,4,5,6,7-hexahydropyrazolo[1,5-a]pyridine-3-formamide]	68.5%	50.9	98.7	92.8	71.6	84.2	67.5	83.8	56.7%	65.3
30.8% and 53.9%	–	O=C(Nc1ccc(Oc2ncnc3[nH]cc(-c4ccccc4)c23)c(F)c1)c1c2n(n(-c3cc(F)ccc3F)c1=O)CCCC2 [DC621055, 1-(2,5-difluorophenyl)-N-(3-fluoro-4-((5-phenyl-7H-pyrrolo[2,3-d]pyrimidin-4-yl)oxy)phenyl)-2-oxo-1,2,4,5,6,7-hexahydropyrazolo[1,5-a]pyridine-3-formamide]	74.2%	68.2	100	96	–	–	–	–	–	–
–	–	COc1cc2ncnc(Oc3ccc(NC(=O)c4c5n(n(-c6ccccc6F)c4=O)CCCC5)c(F)c3)c2cc1OC [DC621056, N-(4-((6,7-dimethoxyquinazoline-4-yl)oxy)-2-fluorophenyl)-1-(2-fluorophenyl)-2-oxo-1,2,4,5,6,7-hexahydropyrazolo[1,5-a]pyridine-3-formamide]	72.8% and 49.8%	–	94.1	92	74.1	84.9	70	86.6	58.8%	45.3
–	–	O=C(Nc1ccc(Oc2ncnc3[nH]cc(-c4ccccc4)c23)c(F)c1)c1c2n(n(-c3ccccc3F)c1=O)CCCC2 [DC621058, N-(3-fluoro-4-((5-phenyl-7H-pyrrolo[2,3-d]pyrimidin-4-yl)oxy)phenyl)-1-(2-fluorophenyl)-2-oxo-1,2,4,5,6,7-hexahydropyrazolo[1,5-a]pyridine-3-formamide]	45.1%	54.6	83.6	89.2	–	–	–	–	–	–
–	–	COc1cc2ncnc(Oc3ccc(NC(=O)c4c5n(n(-c6ccc(F)cc6)c4=O)CCCC5)c(F)c3)c2cc1OC [DC621059, N-(4-((6,7-dimethoxyquinazoline-4-yl)oxy)-2-fluorophenyl)-1-(4-fluorophenyl)-2-oxo-1,2,4,5,6,7-hexahydropyrazolo[1,5-a]pyridine-3-formamide]	–	–	–	–	82.7	84.2	71.4	83.7	78.3%	68.4
19.6%	27.2	COc1cc2ncnc(Oc3ccc(NC(=O)c4c5n(n(-c6ccc(F)cc6)c4=O)CCCC5)cc3C(F)(F)F)c2cc1OC [DC621101, N-(4-((6,7-dimethoxyquinazoline-4-yl)oxy)-3-trifluoromethylphenyl)-1-(4-fluorophenyl)-2-oxo-1,2,4,5,6,7-hexahydropyrazolo[1,5-a]pyridine-3-formamide]	60.9%	75	91.0	96.5	–	–	–	–	–	–
17.2%	25.6	COCCOc1cc2ncnc(Oc3ccc(NC(=O)c4c5n(n(-c6ccc(F)cc6)c4=O)CCCC5)cc3C(F)(F)F)c2cc1OCCOC [DC621102, N-(4-((6,7-bis(2-methoxyethoxy)quinazolin-4-yl)oxy)-3-trifluoromethylphenyl)-1-(4-fluorophenyl)-2-oxo-1,2,4,5,6,7-hexahydropyrazolo[1,5-a]pyridine-3-formamide]	77.2% and 53.4%	–	93.9	99.1	–	–	–	–	–	–

Structure (SMILES)	c-Met Inhibitory rate (%) ([1]; 1 nM, 0.001 µM)	inhibition at 0.001 µM ([1]; 1 nM) [%]	c-Met Inhibitory rate (%) ([1]; 10 nM, 0.01 µM)	inhibition at 0.01 µM ([1]; 10 nM) [%]	c-Met Inhibitory rate (%) ([1]; 100 nM, 0.1 µM)	inhibition at 0.1 µM ([1]; 100 nM) [%]	BaF3/TEL-AXL proliferation Inhibitory rate (%) ([2]; 10 nM, 0.01 µM)	BaF3/TEL-AXL proliferation Inhibitory rate (%) ([2]; 100 nM, 0.1 µM)	inhibition at 0.01 µM ([2]; 10 nM) [%]	inhibition at 0.1 µM ([2]; 100 nM) [%]	BaF3/TEL-AXL proliferation Inhibitory rate (%) ([2]; 1 nM, 0.001 µM)	inhibition at 0.001 µM ([2]; 1 nM) [%]
COc1cc2nccc(Oc3ccc(NC(=O)c4c5n(n(-c6ccccc6)c4=O)CCCC5)cc3F)c2cc1OC [DC621001, N-(4-((6,7-dimethoxyquinoline-4-yl)oxy)-3-fluorophenyl)-2-oxo-1-phenyl-1,2,4,5,6,7-hexahydropyrazolo[1,5-a]pyridine-3-formamide]	51.7% and 72.4%	–	97.6%	84.7	100	92	59.1	71.3	54.9	82	–	–
COc1cc2ncnc(Oc3ccc(NC(=O)c4c5n(n(-c6cc(F)ccc6F)c4=O)CCCC5)cc3)c2cc1OC [DC621022, 1-(2,5-difluorophenyl)-N-(4-((6,7-dimethoxyquinazoline-4-yl)oxy)phenyl)-2-oxo-1,2,4,5,6,7-hexahydropyrazolo[1,5-a]pyridine-3-formamide]	51.1%	35.4	57.0%	41.7	96.5	81.9	58.0	80.9	71.8	83.2	48.3%	66.3
COc1cc2ncnc(Oc3ccc(NC(=O)c4c5n(n(-c6cc(F)ccc6F)c4=O)CCCC5)cc3F)c2cc1OC [DC621023, 1-(2,5-difluorophenyl)-N-(4-((6,7-dimethoxyquinazoline-4-yl)oxy)-3-fluorophenyl)-2-oxo-1,2,4,5,6,7-hexahydropyrazolo[1,5-a]pyridine-3-formamide]	60.9%	58.9	92.3%	80.9	100	99.2	67.6	65.0	66.5	76.8	62.2% and 41.4%	–
